Measured values published in paper PMC11876601 (Molecular Systems Biology, 2025).
Read-outs that look alike come from different tables or passages of the source.

Experiments:
Experiment in all cases: cells
[1] = test system: FAMPAC; set-up: ATPlite luminescence viability of PDAC cell lines, 11-dose single-agent curves, 4-parameter fit; settings: 72 h, read-out: EC50 [nM]
Description: (§1) Afterward, small amounts were transferred to 384-well intermediate plates (Greiner Bio-One GmbH, Germany). […] For drug combination screening, 1000 to 5000 cells were seeded into 384-well plates (CulturPlate™, Perkin Elmer, MA, USA) using a Multidrop™ Combi Reagent Dispenser (Thermo Scientific, MA, USA) in 50 µl medium per well 24 h prior to drug treatment (seeding densities see Appendix Table S1). […] The final DMSO concentration in each well was 0.2%. […] Eight wells per plate without library drug served as negative controls, and sixteen wells per plate containing 5 µM Staurosporine served as positive controls. […] Next, we analyzed the drug sensitivity of immortalized duct cell line HPDE to detect effects unrelated to pancreatic cancer.

[2] = test system: MiaPaCa-2; set-up: ATPlite luminescence viability of PDAC cell lines, 11-dose single-agent curves, 4-parameter fit; settings: Homo sapiens, MIA PaCa-2, 72 h, read-out: EC50 [nM]
Description: as §1

[3] = test system: PSN-1; set-up: ATPlite luminescence viability of PDAC cell lines, 11-dose single-agent curves, 4-parameter fit; settings: Homo sapiens, PSN1, 72 h, read-out: EC50 [nM]
Description: as §1

[4] = test system: AsPC-1; set-up: Viability of PDAC cell lines, ATPlite luminescence, 11-dose single-agent curve fit; settings: Homo sapiens, ASPC1, 72 h, read-out: EC50 [nM]
Description: as §1

[5] = test system: BxPC-3; set-up: Viability of PDAC cell lines, ATPlite luminescence, 11-dose single-agent curve fit; settings: Homo sapiens, BXPC-3, 72 h, read-out: EC50 [nM]
Description: as §1

[6] = test system: Capan-1; set-up: Viability of PDAC cell lines, ATPlite luminescence, 11-dose single-agent curve fit; settings: Homo sapiens, CAPAN-1, 72 h, read-out: EC50 [nM]
Description: as §1

[7] = test system: Colo-357; set-up: Viability of PDAC cell lines, ATPlite luminescence, 11-dose single-agent curve fit; settings: Homo sapiens, COLO357, 72 h, read-out: EC50 [nM]
Description: as §1

[8] = test system: Dan-G; set-up: Viability of PDAC cell lines, ATPlite luminescence, 11-dose single-agent curve fit; settings: 72 h, read-out: EC50 [nM]
Description: as §1

[9] = test system: HPDE; set-up: Viability of PDAC cell lines, ATPlite luminescence, 11-dose single-agent curve fit; settings: HPDE, 72 h, read-out: EC50 [nM]
Description: as §1

[10] = test system: HuP-T4; set-up: Viability of PDAC cell lines, ATPlite luminescence, 11-dose single-agent curve fit; settings: Homo sapiens, HuP-T4, 72 h, read-out: EC50 [nM]
Description: as §1

[11] = test system: PANC-1; set-up: Viability of PDAC cell lines, ATPlite luminescence, 11-dose single-agent curve fit; settings: Homo sapiens, PANC-1, 72 h, read-out: EC50 [nM]
Description: as §1

[12] = test system: PaTu-8988-T; set-up: Viability of PDAC cell lines, ATPlite luminescence, 11-dose single-agent curve fit; settings: Homo sapiens, PaTu 8988t, 72 h, read-out: EC50 [nM]
Description: as §1

[13] = test system: Suit2-07; set-up: Viability of PDAC cell lines, ATPlite luminescence, 11-dose single-agent curve fit; settings: 72 h, read-out: EC50 [nM]
Description: as §1

[14] = test system: BxPC-3; set-up: ATPlite luminescence viability of PDAC cell lines, 11-dose single-agent curves, 4-parameter fit; settings: Homo sapiens, BXPC-3, 72 h, read-out: EC50 [nM]
Description: as §1

[15] = test system: Suit2-07; set-up: ATPlite luminescence viability of PDAC cell lines, 11-dose single-agent curves, 4-parameter fit; settings: 72 h, read-out: EC50 [nM]
Description: as §1

[16] = test system: PSN-1; set-up: Viability of PDAC cell lines, ATPlite luminescence, 11-dose single-agent curve fit; settings: Homo sapiens, PSN1, 72 h, read-out: EC50 [nM]
Description: as §1

[17] = test system: FAMPAC; set-up: Viability of PDAC cell lines, ATPlite luminescence, 11-dose single-agent curve fit; settings: 72 h, read-out: EC50 [nM]
Description: as §1

[18] = test system: MiaPaCa-2; set-up: Viability of PDAC cell lines, ATPlite luminescence, 11-dose single-agent curve fit; settings: Homo sapiens, MIA PaCa-2, 72 h, read-out: EC50 [nM]
Description: as §1

SMILES	EC50 [1] [nM]	EC50 [2] [nM]	EC50 [3] [nM]	EC50 [4] [nM]	EC50 [5] [nM]	EC50 [6] [nM]	EC50 [7] [nM]	EC50 [8] [nM]	EC50 [9] [nM]	EC50 [10] [nM]	EC50 [11] [nM]	EC50 [12] [nM]	EC50 [13] [nM]	EC50 [14] [nM]	EC50 [15] [nM]	EC50 [16] [nM]	EC50 [17] [nM]	EC50 [18] [nM]
O=C(Nc1nc2cccc(-c3ccc(CN4CCS(=O)(=O)CC4)cc3)n2n1)C1CC1 [Filgotinib]	8160	> 10000	7590	305	9420	5940	3490	6150	1990	172	43.9	> 10000	2150					
CCN1C(=O)N(c2c(F)c(OC)cc(OC)c2F)Cc2cnc3[nH]c(CN4CCOCC4)cc3c21 [Pemigatinib]	3320	> 10000		3480		2030	2990	2970	3380	3.44	442	3280		1370	3040	2710		
C[C@@H](c1ccc2nccn2c1)n1nnc2ncc(-c3cnn(C)c3)nc21 [Volitinib]				114	2030	> 10000	226	5780	80	91.1	3950	> 10000	285			16.9	1030	8640
CC1(C)CNc2cc(NC(=O)c3cccnc3NCc3ccncc3)ccc21 [Motesanib]				9400	> 10000	9170	3910	> 10000	8730	515	> 10000	455	942			2550	> 10000	7350
CCCS(=O)(=O)N[C@H]1C[C@@H](N(C)c2ncnc3[nH]ccc23)C1 [Abrocitinib]				3850	275	37.4	9870	> 10000	5620	643	140	3800	901			> 10000	2.68	2760
N#CC[C@H](C1CCCC1)n1cc(-c2ncnc3[nH]ccc23)cn1 [Ruxolitinib]				23.6	6970	0.51	8280	117	> 10000	212	1370	13.4	1750			2210	9910	1740
CONC(=O)c1ccccc1Nc1cc(Nc2cc(C)nn2C(C)C)ncc1Cl [GSK2256098]				292	1670	1650	515	3730	156	4790	804	858	6450			5120	3020	2520
Cn1cc(-c2cc3c(N4CCN(c5ncc([C@@](C)(N)c6ccc(F)cc6)cn5)CC4)ncnn3c2)cn1 [Avapritinib]				1990	3240	3830	420	3820	976	701	2600	1570	3550			1010	2070	1710
